Measured values as given in patent publication US8217028B2, “1,2,4-oxadiazole indole compounds” (Glaxo Group Limited, priority 2008, dated 2012).

biological target: T1, human S1P1 receptor (EDG1) (Homo sapiens, UniProt P21453); test: S1P1 GTPγS assay or S1P1 Tango assay (at least one of the above assays); assay type: cell-based; conditions: in at least one of the S1P1 GTPγS and S1P1 Tango assays
T1 construct: expressed in transfected cells; host or cells: rat hepatoma cells (membranes, GTPγS assay) or Tango GPCR-bla U2OS cells (Tango assay)
T1 sequence (P21453 whole entry): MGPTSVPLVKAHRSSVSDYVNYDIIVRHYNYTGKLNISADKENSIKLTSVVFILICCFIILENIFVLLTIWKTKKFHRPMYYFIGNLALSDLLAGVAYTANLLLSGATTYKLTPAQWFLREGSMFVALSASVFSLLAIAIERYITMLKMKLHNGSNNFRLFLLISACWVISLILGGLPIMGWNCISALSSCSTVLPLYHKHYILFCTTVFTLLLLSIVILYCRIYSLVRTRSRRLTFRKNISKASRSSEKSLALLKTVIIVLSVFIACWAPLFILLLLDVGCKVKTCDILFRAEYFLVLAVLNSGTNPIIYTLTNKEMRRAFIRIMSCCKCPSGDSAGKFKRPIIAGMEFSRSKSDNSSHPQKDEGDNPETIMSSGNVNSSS
Method: For membrane preparations all steps were performed at 4° C. Rat hepatoma cells stably expressing the human S1P1 receptor or Rat Basophilic Leukaemia cells (RBL) stably expressing human S1P3 receptor were grown to 80% confluency before being harvested into 10 ml Phospho-Buffered Saline (PBS) and centrifuged at 1200 rpm for 5 minutes. After removal of the supernatant, the pellet was re-suspended and cells were homogenised within a glass Warning blender for 2 bursts of 15 secs in 200 mls of buffer (50 mM HEPES, 1 mM leupeptin, 25 μg/ml bacitracin, 1 mM EDTA, 1 mM PMSF, 2 μM pepstatin A). The blender was plunged into ice for 5 mins after the first burst and 10-40 mins after the final burst to allow foam to dissipate. The material was then spun at 500 g for 20 mins and the supernatant spun for 36 mins at 48,000 g. The pellet was resuspended in the same buffer as above but without PMSF and pepstatin A. The material was then forced through a 0.6 mm needle, made up to the required volume, (usually ×4 the volume of the original cell pellet), aliquoted and stored frozen at −80° C.
Human S1P1 rat hepatoma membranes (1.5 μg/well) were adhered to a wheatgerm agglutinin (WGA)-coated scintillation proximity assay (SPA) beads (0.125 mg/well) in assay buffer (HEPES 20 mM, MgCl2 10 mM, NaCl 100 mM and pH adjusted to 7.4 using KOH 5M, GDP 10 μM FAC (final assay concentration) and saponin 90 μg/ml FAC was also added).
After 30 minutes pre-coupling on ice the bead and membrane suspension was dispensed into a white Greiner polypropylene LV384-well plate (5 μl/well), containing 0.1 μl of the compound. 5 μl/well [^35S]-GTPγS (0.5 nM final radioligand conc) made up in assay buffer was then added to agonist plates. The final assay cocktail (10.1 μl) was then centrifuged at 1000 rpm for 5 minutes then read immediately on a Viewlux reader.
All test compounds were dissolved in DMSO at a concentration of 10 mM and were prepared in 100% DMSO using a 1 in 4 dilution step to provide 11 point dose response curves. The dilutions were transferred to the assay plates ensuring that the DMSO concentration was constant across the plate for all assays. All data was normalized to the mean of 16 high and 16 low control wells on each plate. A four parameter curve fit was then applied.
Recombinant EDG1-bla/U2OS cells (contain the human Endothelial Differentiation Gene 1 (EDG1) linked to a TEV protease site and a Ga14-VP16 transcription factor stably integrated into the Tango GPCR-bla U2OS parental cell line) were suspended in assay medium (Invitrogen Freestyle Expression Medium) at a density of 312, 500 cells/ml. Add 100 μl/well of the assay medium to the cell-free control wells (column 12) and 100 μl/well of the cell suspension to the test compound wells (row 2-8, column 1-10), the unstimulated control wells (DMSO) (column 11), and stimulated control wells (S1P) (row 1, column 1-10) in a Corning black-well, clear bottom 96-well plate. Cells were incubated at 37° C., 5% CO2 for 44-48 h. […]
After incubation at 37° C., 5% CO2 for 5 h, 25 μl of 6× substrate mixture (6 μl Solution A (1 mg LiveBLAzer™-FRET B/G substrate (CCF4-AM) in 912 μl DMSO) plus 60 μl Solution B plus 934 μl Solution C) was added to each well and incubate at room temperature for 2 h in dark. The plate was finally read on EnVision for two emission channels (460 nm and 530 nm). […]

Compound | EC50
CC(C)Oc1ccc(-c2nc(-c3ccc4[nH]c(C(=O)O)cc4c3)no2)cc1Cl [Example 8, Sodium 5-(5-{3-chloro-4-[(1-methylethyl)oxy]phenyl}-1,2,4-oxadiazol-3-yl)-1H-indole-2-carboxylate] | < 10 µM
CCCCn1cc(CCC(=O)O)c2cccc(-c3noc(-c4ccc(OC(C)C)c(Cl)c4)n3)c21 [Example 29, 3-[1-butyl-7-(5-{3-chloro-4-[(1-methylethyl)oxy]phenyl}-1,2,4-oxadiazol-3-yl)-1H-indol-3-yl]propanoic acid] | < 10 µM
CC(C)Cn1cc(CCC(=O)O)c2cccc(-c3noc(-c4ccc(OC(C)C)c(Cl)c4)n3)c21 [Example 30, 3-[7-(5-{3-chloro-4-[(1-methylethyl)oxy]phenyl}-1,2,4-oxadiazol-3-yl)-1-(2-methylpropyl)-1H-indol-3-yl]propanoic acid] | < 10 µM
COc1ccc(-c2nc(-c3cccc4c(CCC(=O)O)cn(C)c34)no2)cc1OC [Example 44, 3-(7-{5-[3,4-bis(methyloxy)phenyl]-1,2,4-oxadiazol-3-yl}-1-methyl-1H-indol-3-yl)propanoic acid] | < 10 µM
CC(C)Oc1ncc(-c2nc(-c3ccc4c(CN5CCC(C(=O)O)CC5)c[nH]c4c3)no2)cc1Cl [Example 78, 1-{[6-(5-{5-chloro-6-[(1-methylethyl)oxy]-3-pyridinyl}-1,2,4-oxadiazol-3-yl)-1H-indol-3-yl]methyl}-4-piperidinecarboxylic acid] | < 10 µM
